Tests used:
[1] = Total [2-14C](−)-epicatechin-derived radioactivity in whole blood and plasma after oral intake; assay type: in vivo, humans; conditions: human
Procedure: (§1) The study was a single-center, open-label, and non-randomized study with two distinct elements: a run-in phase to establish a more defined dietary background of dietary flavanols and procyanidins and the subsequent ^14C-EC ADME study (Fig. 1B). Participants (n = 12) were enrolled in the run-in phase (day –17 to day –4) and asked to supplement their daily diet for 14 days with a commercially available flavanol-containing cocoa-based drink (250 mg cocoa flavanols; 40 mg of EC). This was followed by a 4-day period (day –4 to 0) of a low-flavanol diet. One day (study day -1) prior to the initialization of the ^14C-EC ADME study, all eligible participants were accommodated under controlled conditions at a metabolic research facility (Covance Clinical Pharmacology Inc., Wisconsin) until completion of the study. Based on the compliance of the first part of the study, 8 participants were selected to participate in the ^14C-EC ADME study. During the ^14C-EC ADME study (Fig. 1B.), volunteers received a low-flavanol, standardized high-fiber diet, and were encouraged to maintain an adequate level of hydration (water ad libitum). Volunteers were asked to fast for 8 h before the initiation of the study and for at least 4 h after the intake of the ^14C-EC test drink (water ad libitum). Venous blood samples were taken using Vacutainer collection tubes, containing potassium EDTA at 0 h (just prior to ^14C-EC ingestion), and at 0.25, 0.5, 1, 1.5, 2, 2.5, 3, 4, 6, 8, 10, 12, 16, 24, 36, and 48 h after test drink consumption. Plasma was obtained by whole blood centrifugation at 2000 × g for 15 min at 5 °C, separated into aliquots and stored at −80 °C until analysis. All urine and feces from the time just prior to the consumption of the test drink were collected at different time intervals for radioactivity and metabolite profiling. Clinical parameters and laboratory evaluations of participants were assessed at screening, on study day –1, and after completing the study, as detailed in Supplementary Methods.
The 50-mL drink consisted of an aqueous solution of ^14C-EC (specific activity 14.5 μCi μmol^−1) and delivered 60 mg (207 μmol) of EC and 300 μCi (660 × 10^6 dpm) of radioactivity. The drink was prepared one day before consumption to verify correctness of composition and stability. Volunteers received the ^14C-EC test drink (50 mL), followed by 3 × 50 mL of water that was used to rinse the test drink container, and 40 mL of water. The radioactivity remaining in the test drink containers was measured, and the residual radioactivity recovered from each container was subtracted from the amount administered to the corresponding volunteer.
Radioactivity in aliquots of plasma and urine was measured by liquid scintillation counting. Blood and feces were dried and oxidized by combustion using a 307 Sample Oxidizer (Packard Instrument Company, Meriden, NH) before being analyzed by liquid scintillation counting.

[2] = Adverse events and clinical/laboratory evaluation in the 14C-EC ADME study; assay type: in vivo, humans; conditions: human
Procedure: as §1, with “Methods. […]” for “Methods.”

[3] = SREM profile in plasma after intragastric 14C-EC, rat; assay type: in vivo, Sprague-Dawley rats; conditions: 30 min after 2 mg/kg BW intragastric 14C-EC
Procedure: To assess the profile of SREMs in rodents, Sprague-Dawley rats (male, 9–10 week old, 270 ± 16 g of BW) and C57BL/6 mice (20 ± 1 g) were administered by gavage 2 mg/kg BW of ^14C-EC (corresponding to ≈10.6 μCi/rat and 6.7 μCi/mouse). Blood samples were collected 30 min after administration. Plasma was obtained by centrifugation at 4 °C for 15 min at 1800xg, separated in aliquots and analyzed by HPLC as described previously[18] with an on-line radioactivity detector (Radiomatic 610TR Flow System Analyzer, PerkinElmer, Inc., Waltham, Mass).

[4] = all volunteers, post-consumption

Oc1cc(O)c2c(c1)O[C@H](c1ccc(O)c(O)c1)[C@H](O)C2 [^14C-EC, [2-^14C](−)-epicatechin]
Association of whole blood radioactivity with plasma vs cellular components [1]: associated, almost exclusively, with plasma | Time by which radioactivity in plasma fell below the limit of quantitation [1, 4]: ≤ 72 h | Time by which radioactivity in whole blood fell below the limit of quantitation [1, 4]: ≤ 36 h | Time after consumption at which radioactivity was detected in the circulation ([1]; oral 60 mg 14C-EC): 15 min | Total radioactivity in the circulatory system at Cmax, of the amount of 14C-EC ingested ([1]; calculated from whole blood concentration and blood volume): < 2% | Severity of reported adverse events [2]: all reported adverse events were mild in severity | Number of adverse events reported ([2]; reported by 3 different participants, none related to study treatment): 6 | Adverse events related to the study treatment ([2]; single oral 60 mg, 300 μCi): No adverse events related to the study treatment were recorded | Clinical changes in laboratory evaluations, physical examinations and 12-lead electrocardiograms ([2]; single oral 60 mg, 300 μCi): no significant clinical changes | Detection in plasma [3]: No unmetabolized EC and sulfated SREMs were detected
